The values below come from patent US20210053957A1, “HERBICIDAL COMPOUNDS” (SYNGENTA PARTICIPATIONS AG, priority 2018, published 2021).

Assay in all cases: Post-emergence efficacy, glasshouse spray test
Holding throughout (type): in vivo

For experiment [1], the system named is Amaranthus palmeri (AMAPA). The conditions noted are these: Application Rate 500 g/Ha, evaluated after 13 days; for pest or weed control at 500 g/ha: Amaranthus palmeri, post-emergence, 312 h, read-out: Control of weed species after post-emergence application, AMAPA (100=total damage to plant; 0=no damage to plant). The gist of the method: (§1)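 Foliar application to young potted plants, 14 days from sowing, grown and held under controlled glasshouse conditions (24/16° C, 65% humidity). Adjuvant: 0.25% or 1% Empicol ESC70 + 1% ammonium sulphate. Assessed at 13 days on a 0–100 damage scale.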

Experiment [2] relates to Chenopodium album (CHEAL). Particulars: Application Rate 500 g/Ha, evaluated after 13 days; for pest or weed control at 500 g/ha: Chenopodium album, post-emergence, 312 h, read-out: Control of weed species after post-emergence application, CHEAL (100=total damage to plant; 0=no damage to plant). In short, it runs like this:
as §1

The subject of experiment [3] is Digitaria sanguinalis (DIGSA). The conditions noted are these: Application Rate 500 g/Ha, evaluated after 13 days; for pest or weed control at 500 g/ha: Digitaria sanguinalis, post-emergence, 312 h, read-out: Control of weed species after post-emergence application, DIGSA (100=total damage to plant; 0=no damage to plant). In short, it runs like this:
as §1

Experiment [4] has as its system Echinochloa crus-galli (ECHCG). The conditions noted are these: Application Rate 500 g/Ha, evaluated after 13 days; for pest or weed control at 500 g/ha: Echinochloa crus-galli, post-emergence, 312 h, read-out: Control of weed species after post-emergence application, ECHCG (100=total damage to plant; 0=no damage to plant). In short, it runs like this: as §1
Experiment [5] concerns Eleusine indica (ELEIN). The conditions noted are these: Application Rate 500 g/Ha, evaluated after 13 days; for pest or weed control at 500 g/ha: Eleusine indica, post-emergence, 312 h, read-out: Control of weed species after post-emergence application, ELEIN (100=total damage to plant; 0=no damage to plant). In short, it runs like this: as §1
Experiment [6] has as its system Euphorbia heterophylla (EPHHL). Particulars: Application Rate 500 g/Ha, evaluated after 13 days; for pest or weed control at 500 g/ha: Euphorbia heterophylla, post-emergence, 312 h, read-out: Control of weed species after post-emergence application, EPHHL (100=total damage to plant; 0=no damage to plant). The gist of the method:
as §1

For experiment [7], the system named is Ipomoea hederacea (IPOHE). Particulars: Application Rate 500 g/Ha, evaluated after 13 days; for pest or weed control at 500 g/ha: Ipomoea hederacea, post-emergence, 312 h, read-out: Control of weed species after post-emergence application, IPOHE (100=total damage to plant; 0=no damage to plant). In short, it runs like this: as §1
In experiment [8] the test system is Lolium perenne (LOLPE). The conditions noted are these: Application Rate 500 g/Ha, evaluated after 13 days; for pest or weed control at 500 g/ha: Lolium perenne, post-emergence, 312 h, read-out: Control of weed species after post-emergence application, LOLPE (100=total damage to plant; 0=no damage to plant). The gist of the method:
as §1

Experiment [9] concerns Setaia fabei (SETFA). The conditions noted are these: Application Rate 500 g/Ha, evaluated after 13 days; for pest or weed control at 500 g/ha: Setaria faberi, post-emergence, 312 h, read-out: Control of weed species after post-emergence application, SETFA (100=total damage to plant; 0=no damage to plant). The gist of the method: as §1

SMILES strings stand for the structures.

Turning to `O=C(O)CC[n+]1ccc(-c2nc(C(F)(F)F)co2)cn1` [Compound A56], the pest or weed control at 500 g/ha is 100% in [1]; 80% in experiment [2]; 70% in [3]; 90% in experiment [4]; 80% in experiment [5]; 90% in experiment [6]. Besides, the values for the pest or weed control at 500 g/ha in experiment [7], in [8] and in experiment [9] were 30%, 50% and 80%, respectively.

For the compound `O=S(=O)([O-])CC[n+]1ccc(-c2nc(C(F)(F)F)co2)cn1` [Compound A57], the pest or weed control at 500 g/ha in experiment [1] was 100%; in experiment [2] it was 100%; in experiment [3] it was 70%; in experiment [4], 80%; in [5] it was 60%; in [6], 90%. The pest or weed control at 500 g/ha in experiment [7] stood at 60%; in experiment [8], 50%; in [9], 60%.

As for `O=S(=O)([O-])CCC[n+]1ccc(-c2ccon2)cn1` [Compound A59], the pest or weed control at 500 g/ha in experiment [1] amounted to 90%; in [2], 90%; in [3], 70%; in experiment [4] it was 70%; in experiment [5] it was 90%; in experiment [6] it was 100%. The pest or weed control at 500 g/ha in experiment [7] is 80%; in experiment [8] it was 70%; in experiment [9], 80%.

In the case of `O=S(=O)([O-])CC[n+]1ccc(-c2cnsc2)cn1` [Compound A60], the pest or weed control at 500 g/ha amounted to 90% in [1]; 90% in experiment [2]; 50% in experiment [3]; 40% in experiment [4]; 70% in experiment [5]; 50% in [6]. For the same compound, the pest or weed control at 500 g/ha in experiment [7] amounted to 10%; in experiment [8], 30%; in experiment [9], 50%.

For `O=S(=O)([O-])CC[n+]1ccc(-c2cscn2)cn1` [Compound A61], the pest or weed control at 500 g/ha in [1] came to 100%; in experiment [2], 70%; in [3], 80%; in experiment [4], 50%; in experiment [5] it was 60%; in [6], 40%. Moreover, the pest or weed control at 500 g/ha in experiment [7] stood at 20%; in experiment [8], 30%; in [9], 70%.

Take `O=C(O)CC[n+]1ccc(-c2cnsc2)cn1` [Compound A62]: the pest or weed control at 500 g/ha in [1] came to 0%; in experiment [2], 20%; in experiment [3] it was 10%; in [4], 0%; in experiment [5], 0%; in [6] it was 40%. Further, the pest or weed control at 500 g/ha stood at 20% in experiment [7], 0% in experiment [8] and 0% in experiment [9].

As for `O=C(O)CC[n+]1ccc(-c2ccsc2)cn1` [Compound A63], the pest or weed control at 500 g/ha in experiment [1] was 0%; in experiment [2], 30%; in experiment [3] it was 20%; in experiment [4], 20%; in experiment [5], 20%; in [6] it was 40%. Also, the pest or weed control at 500 g/ha worked out at 20% in experiment [7], 10% in experiment [8] and 30% in [9].

Turning to `O=S(=O)([O-])CC[n+]1ccc(-c2ccon2)cn1` [Compound A64], the pest or weed control at 500 g/ha in experiment [1] came to 100%; in [2], 90%; in [3], 90%; in experiment [4] it was 80%; in experiment [5] it was 30%; in [6] it was 100%. Further, the pest or weed control at 500 g/ha was determined as 90% in experiment [7], 40% in experiment [8] and 80% in [9].

Consider `Nc1nnc(-c2cc[n+](CCS(=O)(=O)[O-])nc2)s1` [Compound A65], for which the pest or weed control at 500 g/ha was found to be 80% in experiment [1]; 70% in [2]; 100% in experiment [3]; 60% in [4]; 100% in experiment [5]; 90% in experiment [6]. In addition, the pest or weed control at 500 g/ha in experiment [7] came to 60%; in [8], 90%; in experiment [9], 100%.

For `O=S(=O)([O-])OCC[n+]1ccc(-c2ncco2)cn1` [Compound A67], the pest or weed control at 500 g/ha in experiment [1] is 100%; in [2], 80%; in experiment [3], 90%; in experiment [4], 70%; in experiment [5], 90%; in experiment [6] it was 80%. The pest or weed control at 500 g/ha in [7] worked out at 80%; in [8] it was 60%; in experiment [9], 80%.

As to `O=S(=O)(O)CCCC[n+]1ccc(-c2ncco2)cn1` [Compound A68], the “Control of weed species after post-emergence application, AMAPA (100=total damage to plant; 0=no damage to plant)” value in [1] is listed as 100. For the same compound, in experiment [2], the “Control of weed species after post-emergence application, CHEAL (100=total damage to plant; 0=no damage to plant)” value came to 90. In addition, the “Control of weed species after post-emergence application, DIGSA (100=total damage to plant; 0=no damage to plant)” value in [3] is listed as 70. For the same compound, in [4], the “Control of weed species after post-emergence application, ECHCG (100=total damage to plant; 0=no damage to plant)” value is given as 60. Also, the “Control of weed species after post-emergence application, ELEIN (100=total damage to plant; 0=no damage to plant)” value in experiment [5] is recorded as 70. Further, the “Control of weed species after post-emergence application, EPHHL (100=total damage to plant; 0=no damage to plant)” value in [6] worked out at 90. Besides, in [7], the “Control of weed species after post-emergence application, IPOHE (100=total damage to plant; 0=no damage to plant)” value came to 50. In addition, the “Control of weed species after post-emergence application, LOLPE (100=total damage to plant; 0=no damage to plant)” value in [8] was 70. Further, the “Control of weed species after post-emergence application, SETFA (100=total damage to plant; 0=no damage to plant)” value in experiment [9] came out at 80.

Turning to `O=C(O)C[n+]1ccc(-c2ncco2)cn1` [Compound A71], the pest or weed control at 500 g/ha in experiment [1] amounted to 100%; in experiment [2], 90%; in [3], 90%; in experiment [4] it was 100%; in [5], 100%; in experiment [6], 90%. The pest or weed control at 500 g/ha in experiment [7] stood at 60%; in experiment [8], 80%; in [9], 90%.

Regarding `CS(=O)(=O)[N-]C(=O)C[n+]1ccc(-c2ncco2)cn1` [Compound A72], the pest or weed control at 500 g/ha in [1] worked out at 90%; in experiment [2], 70%; in experiment [3] it was 60%; in experiment [4], 40%; in experiment [5] it was 80%; in experiment [6] it was 70%. Besides, the pest or weed control at 500 g/ha in experiment [7] turned out to be 70%; in experiment [8], 40%; in [9] it was 60%.

In the case of `O=S(=O)([O-])NCC[n+]1ccc(-c2ncco2)cn1` [Compound A73], the pest or weed control at 500 g/ha in [1] came out at 80%; in [2], 70%; in experiment [3] it was 70%; in [4], 50%; in experiment [5], 70%; in experiment [6], 50%. In addition, the figures for the pest or weed control at 500 g/ha in [7], in experiment [8] and in [9] were 30%, 10% and 60%, respectively.
